Values joined by “and” are separate entries in the source; they are usually repeats but may differ in a detail not shown here. Equal entries are not always repeated.
How the values were obtained:
[1] = system: mice, spared nerve injury (SNI) model; experiment: SNI model, marble-burying test; format: in vivo, mouse
Description: solution (0.05 mg/kg) injected s.c. 30 min before surgery (10 μL/g). For surgery, mice were anaesthetised with ketamine (100 mg/kg, i.p.) and xylazine (10 mg/kg, i.p.) (volume 10 µL/g) with 100 μL of 1% xylocaine solution infiltrated at the site of the incision. The distal trifurcation of the sciatic nerve was identified, and the tibial and common peroneal branches were ligated with polypropylene nonabsorbable 6-0 sutures (Ethicon) and 1 mm was cut out, leaving the sural branch intact. The wound was closed with sutures, and the animals were allowed to recover and returned to their cages. Two subcutaneous injections of buprenorphine (0.05 mg/kg) were performed with an 8 to 12 hours delay decreasing pain due to the surgery […]
Wounds were closed with surgical glue or medical clips and animals were monitored daily for signs of stress or discomfort, but in all cases recovered uneventfully. […]
For the first experiment with sustained administration of mPD5 (Figure 7C), the mice underwent a baseline von Frey reading as described in the “Mechanically-evoked pain (von Frey).”-section and SNI surgery as described in “Induction of neuropathic pain (SNI model).”-section. […] At 4,5 hours after the 10 μmol/kg mPD5 injection paw withdrawal threshold was measured again followed by a s.c. injection of 2 μmol/kg mPD5 in all animals. […]

[2] = system: mice, spared nerve injury (SNI) model; experiment: SNI model, von Frey, repeated s.c. administration on 2 consecutive days; format: in vivo, mouse; parameters: von Frey threshold, Fig 7A, individual mice: unit not given here
Source text: Repeated and sustained administration of mPD5 in the SNI model.
For the experiment with repeated administration of mPD5 (Figure 7A), male C57BL/6J (Janvier, France) mice underwent surgery leading to partial nerve injury, by cutting the peroneal and tibial nerves, producing hypersensitivity of the remaining sural nerve (SNI) as described in the “Induction of neuropathic pain (SNI model).”-section. On day 21 after surgery, hyperalgesia was confirmed by using von Frey filaments to induce mechanically evoked hypersensitivity and measure paw withdrawal threshold of the animals as described in the “Mechanically-evoked pain (von Frey).”-section. On the same day, mice were injected s.c. with 2, 10, or 50 μmol/kg mPD5 (10 μL/g) and evoked pain was tested again with the use of von Frey filaments at 1 and 5 hours after injection. 24 hours after the first injection, mice were injected s.c. with 2, 10, or 50 μmol/kg mPD5 (10 μL/g) again and evoked pain was tested with the use of von Frey filaments at 1, 5, and 24 hours after the second injection. […]

Compound: CCCCCCCCCCCCCC(=O)N(CCOCCOCCC(=O)N[C@@H](Cc1c[nH]cn1)C(=O)N[C@@H](Cc1c[nH]c2ccccc12)C(=O)N[C@@H](CC(C)C)C(=O)N[C@@H](CCCCN)C(=O)N[C@H](C(=O)O)C(C)C)CCOCCOCCC(=O)N[C@@H](Cc1c[nH]cn1)C(=O)N[C@@H](Cc1c[nH]c2ccccc12)C(=O)N[C@@H](CC(C)C)C(=O)N[C@@H](CCCCN)C(=O)N[C@H](C(=O)O)C(C)C [mPD5, myristoyl-NPEG4-(HWLKV)2]
- marbles buried, individual mice ([1]; 1 hour after s.c. 10 μmol/kg): 6 and 7 and 9 and 8 and 3 and 1 and 5
- effect on SNI-induced decrease in marble burying ([1]; female mice, s.c. 10 μmol/kg, to the level of the naive mice): reverted significantly
- von Frey threshold, contralateral paw, Fig 7A, individual mice ([2]; A_contra, hr 5 day2): 1.4 and 1 (3×)
- von Frey threshold, contralateral paw, Fig 7A, individual mice ([2]; A_contra, hr23): 1 (3×) and 1.4 (4×) and 2
- von Frey threshold, contralateral paw, Fig 7A, individual mice ([2]; A_contra, hr1 day 1): 1.4 (6×) and 1 and 2
- von Frey threshold, contralateral paw, Fig 7A, individual mice ([2]; A_contra, hr 1 day 2): 1 (5×) and 1.4 (2×) and 2
- von Frey threshold, contralateral paw, Fig 7A, individual mice ([2]; A_contra, hr 5 day 1): 1.4 (6×) and 2 and 1
- von Frey threshold, contralateral paw, Fig 7A, individual mice ([2]; B_contra, hr23): 1.4 (4×) and 1 (3×) and 2
- von Frey threshold, contralateral paw, Fig 7A, individual mice ([2]; B_contra, hr1 day 1): 1.4 (5×) and 1 (3×)
- von Frey threshold, contralateral paw, Fig 7A, individual mice ([2]; B_contra, hr 1 day 2): 1.4 (5×) and 1 (3×)
- von Frey threshold, contralateral paw, Fig 7A, individual mice ([2]; B_contra, hr 5 day 1): 1.4 and 1 (2×) and 2 (5×)
- von Frey threshold, contralateral paw, Fig 7A, individual mice ([2]; C_comtra, hr23): 2 and 1.4 (5×) and 1 (2×)
- von Frey threshold, contralateral paw, Fig 7A, individual mice ([2]; C_comtra, hr1 day 1): 3 and 2 (2×) and 1 (2×) and 1.4 (3×)
- von Frey threshold, contralateral paw, Fig 7A, individual mice ([2]; C_comtra, hr 1 day 2): 1 (2×) and 1.4 (4×) and 2 (2×)
- von Frey threshold, contralateral paw, Fig 7A, individual mice ([2]; C_comtra, hr 5 day 1): 2 and 1 (4×) and 1.4 (3×)
- relief of mechanical hypersensitivity ([2]; SNI 3 weeks after surgery, first day, s.c. 50 μmol/kg only, 5 hours): significant effect at 5 hours
- relief of mechanical hypersensitivity ([2]; SNI 3 weeks after surgery, first day, s.c. 2, 10, 50 μmol/kg (all concentrations), 1 hour): significant effects at 1 hour
- relief of mechanical hypersensitivity ([2]; SNI, next day (second injection), only 10 and 50 μmol/kg, 1 and 5 hours after administration): significant pain relief
- development of tolerance ([2]; SNI, s.c. 2, 10, 50 μmol/kg on 2 consecutive days): do not indicate immediate development of tolerance
- von Frey threshold, Fig 7A, individual mice ([2]; group 2, hr 5 day2): 0.07 and 0.16 (2×)
- von Frey threshold, Fig 7A, individual mice ([2]; group 2, hr23): 0.07 (5×) and 0.16 (3×)
- von Frey threshold, Fig 7A, individual mice ([2]; group 2, hr1 day 1): 0.16 and 1 (2×) and 0.6 (2×) and 1.4 and 0.4 (2×)
- von Frey threshold, Fig 7A, individual mice ([2]; group 2, hr 1 day 2): 0.16 (3×) and 1 and 0.6 (3×) and 0.4
- von Frey threshold, Fig 7A, individual mice ([2]; group 2, hr 5 day 1): 0.07 (2×) and 0.4 (3×) and 0.16 (2×) and 0.6
- von Frey threshold, Fig 7A, individual mice ([2]; group 10, hr 5 day2): 1
- von Frey threshold, Fig 7A, individual mice ([2]; group 10, hr23): 0.16 (3×) and 0.4 (3×) and 0.07 (2×)
- von Frey threshold, Fig 7A, individual mice ([2]; group 10, hr1 day 1): 1 (3×) and 2 (2×) and 0.4 and 1.4 and 0.6
- von Frey threshold, Fig 7A, individual mice ([2]; group 10, hr 1 day 2): 1 (3×) and 2 (2×) and 0.4 (2×) and 1.4
- von Frey threshold, Fig 7A, individual mice ([2]; group 10, hr 5 day 1): 0.16 and 2 and 1 (2×) and 0.07 and 0.4 (3×)
- von Frey threshold, Fig 7A, individual mice ([2]; group 50, hr23): 0.16 (5×) and 0.07 (3×)
- von Frey threshold, Fig 7A, individual mice ([2]; group 50, hr1 day 1): 1.4 (5×) and 1 and 0.6 and 0.16
- von Frey threshold, Fig 7A, individual mice ([2]; group 50, hr 1 day 2): 1 (4×) and 0.6 and 1.4 (2×) and 0.4
- von Frey threshold, Fig 7A, individual mice ([2]; group 50, hr 5 day 1): 0.6 (3×) and 1 and 0.4 (2×) and 0.16 (2×)

From publication PMC11530130, “Peripherally restricted PICK1 inhibitor mPD5 ameliorates pain behaviors in murine inflammatory and neuropathic pain models” (JCI Insight, 2024)
